Source: US10836728B2, “Substituted 3-dialkylaminomethyl-piperidin-4-yl-benzamides and methods of making and using same” (MEBIAS DISCOVERY, INC., priority 2017, dated 2020)
pEC50: −log10 of the molar value. Where two headings read alike, the source gives them in different places.

Tests used:
human OPRM1 (μ, MOR) [1] = target: T1, human OPRM1 (μ, MOR) (Homo sapiens (Human), UniProt P35372); experiment: cell-based; format: cell-based; details: for pEC50: PathHunter human OPRM1 Arrestin CHO-K1 cell line, read-out: β-Arrestin EC50; for Emax: OPRM1, read-out: β-Arrestin Emax
Description: The technology is based on Enzyme Fragment Complementation (EFC) with β-galactosidase (β-Gal) as the reporter. […] EA is fused to β-arrestin-2, and ED is fused to the C-terminus of the GPCR of interest. When a ligand binds and the GPCR is activated, β-arrestin-2 is recruited to the receptor resulting in an ED/EA complementation, restoring β-Gal activity, which is measured using chemiluminescence. For this assay, the PathHunter human OPRM1 (μ, MOR) Arrestin CHO-K1 cell line was used.

human OPRM1 (μ, MOR) [2] = target: T1, human OPRM1 (μ, MOR); experiment: cell-based; format: cell-based; details: for pEC50: PathHunter human OPRM1 Arrestin CHO-K1 cell line, read-out: cAMP EC50; for Emax: OPRM1, read-out: cAMP Emax
Description: G-protein signaling was measured via second messenger cAMP modulation. Detection of cAMP modulation was accomplished in the PathHunter human OPRM1 (μ, MOR) Arrestin CHO-K1 cell line using the Dynamic2 cAMP Kit from Cisbio.

MOR [3] = target: T2, MOR (Homo sapiens (Human), UniProt P35372); format: cell-based; details: for ΔRA of compound: β-arrestin vs cAMP, from EC50 and Emax
Description: In certain embodiments, the ability of a compound to activate G-protein or β-arrestin is not an on/off switch for a given pathway, but rather a continuous function. To capture this, each compound is measured for activity in cell assays that are linked to β-arrestin recruitment and G-protein signaling. By comparing the activity between these two measures (accounting for both EC50 and maximal response reached, Emax) a relative activity (RA) value is determined.
In the case of MOR it is desirable to have high activation of the G-protein pathway while reducing activation of β-arrestin.

intestinal transit = experiment: Gastrointestinal motility (charcoal transit); details: rat, SC
Description: At 30 minutes post subcutaneous dosing, the animals were given a suspension of 5% charcoal in 10% gum arabic solution (2 ml/animal p.o.) and sacrificed 15 minutes later. The intestine was removed, and the length of the gut in cm (GL) as well as extent of charcoal movement from the pylorus to the beginning of the charcoal column in cm (CP) was measured.
Intestinal transit (IT) was calculated as IT=(CP/GL)×100%. A 30% or more (30) increase or decrease intestinal transit (IT), relative to the vehicle control group, was considered significant. The values in animals treated with test compounds compared with vehicle control group were also analyzed by using one-way ANOVA followed by Dunnett's test. Differences are considered statistically significant at P<0.05.

tail flick response = experiment: Rat tail flick nociceptive pain model; format: in vivo; details: SC
Description: In rodents, the tail flick response to radiant heat is commonly used as a model to detect potentially useful analgesic agents.
Procedurally, the time (seconds) required to elicit a tail flick response induced by focused radiant heat is measured as the pain threshold in groups of 8 Sprague-Dawley (SD) male rats weighing 110±20 g. Prolongation by 50 percent or more (≥50) of the time required to elicit a tail flick response 15 and 30 minutes following administration of test substance indicates possible analgesic activity. Also, one-way ANOVA followed by Dunnett's test is applied for comparison between vehicle control and treatment groups.

[4] = Respiratory depression test (O2 partial pressure); details: rat, SC, at 30 minutes, vehicle 96 mm Hg
place preference = experiment: Conditioned place preference; details: rat, SC
Description: Although a number of different designs and apparatuses are used in this model, the basic characteristics of this task involve the association of a particular environment with drug treatment, followed by the association of a different environment with the absence of the drug (i.e., the drug's vehicle). A common variation of this design consists of a three-compartment chamber with the outer compartments being designed to have different characteristics (e.g., white vs. black walls, pine vs. corn bedding, horizontal grid vs. cross-grid flooring). […] On the following day, the rat is injected with the drug's vehicle and then placed in the opposite compartment. […] Afterward, a test session is conducted, which consists of placing the animal in the center compartment and then, after opening the gates to both of the outer compartments, recording the time the animal spends in each of the outer compartments during the session.
In certain embodiments, there are three days of adaptation where any preferences are assessed. Then, compartment assignments for drug or saline are based on any existing preferences. […] There are 8 days of training followed by the test day when both compartments are accessible and the computer counts how much time is spent in the respective compartment.

sedation = experiment: Accelerating RotaRod (sedation); details: rat, SC
MOR [5] = target: T2, MOR; details: cell-based assays; cited from earlier work
[6] = patients following bunionectomy; cited from earlier work
MOR [7] = target: T2, MOR; details: vs morphine; cited from earlier work
[8] = healthy volunteers; cited from earlier work

SMILES	pEC50 (human OPRM1 (μ, MOR) [1])	pEC50 (human OPRM1 (μ, MOR) [2])	Bias Factor (ΔRA of compound relative to ΔRA of DAMGO) × 10 (MOR [3])	ΔRA of compound (MOR [3])	Emax (human OPRM1 (μ, MOR) [1])	Emax (human OPRM1 (μ, MOR) [2])	other results
CN(C)C[C@H]1CN(Cc2ccc(F)cc2Cl)CC[C@]1(O)c1cccc(C(N)=O)c1 (single isomer, unassigned; ent-a) [Ent-A-syn-(6)]	5.50	6.79	−0.92	−1.63	–	–	β-Arrestin Emax (human OPRM1 (μ, MOR) [1]): 60%; cAMP Emax (human OPRM1 (μ, MOR) [2]): 132%
CN(C)C[C@@H]1CN(Cc2ccc(F)cc2Cl)CC[C@@]1(O)c1cccc(C(N)=O)c1 (single isomer, unassigned; ent-b) [Ent-B-syn-(6), Ent-B-syn 3-(1-(2-chloro-4-fluorobenzyl)-3-((dimethylamino)methyl)-4-hydroxypiperidin-4-yl)benzamide]	5.44	6.33	−1.06	−1.65	–	–	β-Arrestin Emax (human OPRM1 (μ, MOR) [1]): 20%; cAMP Emax (human OPRM1 (μ, MOR) [2]): 111%
CN(C)CC1CN(Cc2ccc(F)cc2Cl)CCC1(O)c1cccc(C(N)=O)c1 (centres unmarked) [(6), 3-[1-(2-Chloro-4-fluoro-benzyl)-3-dimethylaminomethyl-4-hydroxy-piperidin-4-yl]-benzamide]	5.59	6.99	−2.89	−1.83	40%	107%	–
CN(C)CC1CN(CCc2ccccc2)CCC1(O)c1cccc(C(N)=O)c1 (centres unmarked) [(9), 3-(3-Dimethylaminomethyl-4-hydroxy-1-phenethyl-piperidin-4-yl)-benzamide]	6.08	7.47	−6.76	−2.22	18%	118%	–
CN(C)CC1CN(Cc2ccsc2)CCC1(O)c1cccc(C(N)=O)c1 (centres unmarked) [(11), 3-(3-Dimethylaminomethyl-4-hydroxy-1-thiophen-3-ylmethyl-piperidin-4-yl)-benzamide]	4.97	6.26	−2.31	−1.77	37%	112%	–
CN(C)CC1CN(CCc2ccsc2)CCC1(O)c1cccc(C(N)=O)c1 (centres unmarked) [(15), 3-(3-((Dimethylamino)methyl)-4-hydroxy-1-(2-(thiophen-3-yl)ethyl)piperidin-4-yl)benzamide]	< 4.00	7.17	–	–	< 10%	95%	–
COc1ccc(CCN2CCC(O)(c3cccc(C(N)=O)c3)C(CN(C)C)C2)cc1 (centres unmarked) [(17), 3-(3-((Dimethylamino)methyl)-4-hydroxy-1-(4-methoxyphenethyl)piperidin-4-yl)benzamide]	< 4.00	6.33	–	–	< 10%	84%	–
CN(C)CC1CN(CCc2ccc(O)cc2)CCC1(O)c1cccc(C(N)=O)c1 (centres unmarked) [(18), 3-(3-((Dimethylamino)methyl)-4-hydroxy-1-(4-hydroxyphenethyl)piperidin-4-yl)benzamide]	5.51	6.80	−3.73	−1.91	24%	103%	–
CN(C)CC1CN(CCCc2ccccc2)CCC1(O)c1cccc(C(N)=O)c1 (centres unmarked) [(20), 3-[3-Dimethylaminomethyl-4-hydroxy-1-(3-phenyl-propyl)-piperidin-4-yl]-benzamide]	6.57	8.00	−7.37	−2.28	14%	103%	–
CN(C)C[C@H]1CN(CCCc2ccc(F)cc2Cl)CC[C@]1(O)c1cccc(C(N)=O)c1 [(23a), 3-((3S,4R)-1-(3-(2-Chloro-4-fluorophenyl)propyl)-3-((dimethylamino)methyl)-4-hydroxypiperidin-4-yl)benzamide]	–	–	–	–	–	–	Reduction in transit relative to vehicle (intestinal transit; 4.5 mg/kg): no significant reduction in transit; Reduction in transit relative to vehicle (intestinal transit; 18 mg/kg): small reduction in transit; Dose to reach the ED80 of morphine in rat tail flick (tail flick response): 4.5 mg/kg; O2 partial pressure ([4]; 4.5 mg/kg): the same O2 partial pressure as vehicle; O2 partial pressure ([4]; 18 mg/kg): the same O2 partial pressure as vehicle; Preference for drug chamber over saline chamber (place preference; 18 mg/kg): no preference for the (23a) chamber over the saline chamber; Sedation, accelerating RotaRod (sedation; 4.5 mg/kg): no sedation; Sedation, accelerating RotaRod (sedation; 18 mg/kg): no sedation
CN(C)C[C@H]1CN(CCc2ccsc2)CC[C@]1(O)c1cccc(C(N)=O)c1 [(41a), 3-((3S,4R)-3-((Dimethylamino)methyl)-4-hydroxy-1-(2-(thiophen-3-yl)ethyl)piperidin-4-yl)benzamide]	–	–	–	–	–	–	Reduction in transit relative to vehicle (intestinal transit; 5 mg/kg): no significant reduction in transit; Reduction in transit relative to vehicle (intestinal transit; 20 mg/kg): no significant reduction in transit; Dose to reach the ED80 of morphine in rat tail flick (tail flick response): 5 mg/kg; O2 partial pressure ([4]; 5 mg/kg): the same O2 partial pressure as vehicle; O2 partial pressure ([4]; 20 mg/kg): the same O2 partial pressure as vehicle; Preference for drug chamber over saline chamber (place preference; 20 mg/kg): no preference for the (41a) chamber over the saline chamber; Sedation, accelerating RotaRod (sedation; 5 mg/kg): no sedation; Sedation, accelerating RotaRod (sedation; 20 mg/kg): no sedation
C[C@@H](NC(=O)[C@@H](N)Cc1ccc(O)cc1)C(=O)NCC(=O)N(C)[C@@H](Cc1ccccc1)C(=O)NCCO [DAMGO, H-Tyr-D-Ala-Gly-NMe-Phe-Gly-OH, reference compound]	–	–	–	–	98%	–	–
COc1ccsc1CNCC[C@@]1(c2ccccn2)CCOC2(CCCC2)C1 [oliceridine, N-[(3-methoxythiophen-2-yl)methyl]-2-[(9R)-9-pyridin-2-yl-6-oxaspiro[4.5]decan-9-yl]ethanamine]	–	–	–	–	–	–	β-arrestin recruitment Emax (MOR [5]): 14%; Level of analgesia [6]: higher level of analgesia; G-protein signaling Emax (MOR [7]): 83%; On-target adverse effects (such as nausea, and decrease in respiratory drive) [8]: decreased on-target adverse effects
